In publication PMC12113730 (Microorganisms, 2025):
Like-named read-outs stand apart in the source and are kept apart here. Ends that are not written are not given here.

Legend:
[1] = in vitro; conditions: both, human, 10-fold diluted pooled whole saliva supernatant (WSS)
Method: (§4) After an informed consent was obtained from all participants, stimulated whole saliva (WS) samples were collected from healthy, non-smoking adult male and female volunteers ranging from 25 to 39 years old. WS was obtained for three volunteers with good general oral health who were not taking medications that could alter their salivary flow and was performed as described previously in [29, 39]. Salivary secretion was stimulated by chewing a piece of Parafilm wax. WS was collected between 9 and 11 am, at least 2 h after the last meal. The salivary secretion was collected using a collecting tube that was kept on ice until obtaining 5.0 mL. The total volume of collected saliva was centrifuged at 4500× g (Sorvall™ ST 16 Centrifuge—Thermo Fisher Scientific, Waltham, MA, USA) at 4 °C for a period of 30 min to separate bacteria, cells and residues. The total whole saliva pellet and the total whole saliva supernatant (WSS) were separated, and the WSS was pooled and used for the degradation assay.
(§5) To assess and compare proteolysis degradation in the WS environment, all the peptides were added to WSS to observe their degradation over time by cationic-PAGE and HPLC. To investigate the degradation of each peptide, 50 µg mL^−1 of synthetic peptides 0WHst5, WP113, 8WH5, 7WH5 and 6WH5 were added to 10-fold diluted WSS. After 0, 0.5, 1.5, 4, 6, 8, 24 and 48 h of incubation, two aliquots of 100 µL were removed (one for the cationic-PAGE analysis another for HPLC analysis). After that, the aliquots were boiled for 5 min to terminate proteolytic activity. Subsequently the aliquots were diluted in a buffer containing 80% acetonitrile/19.9% H2O/0.1% trifluoroacetic acid, dried using a Vacufuge concentrator (Eppendorf, Westbury, NY, USA) and desalted using ZipTip® Pipette Tips (Merk, Rahway, NJ, USA) to concentrate and purify the samples [29].
(§6) For the cationic-PAGE, the aliquots were dried using a Vacufuge concentrator and resuspended in sample buffer containing 0.04% methyl green (Thermo Fisher Scientific, Waltham, MA, USA) in 40% sucrose. Then, 5 μg of each peptide was used as standard for the test. The stacking and separation gels were polymerized using 100 W incandescent light for 9 min each and the electrophoresis was carried out at a constant voltage of 120 V. The gels were stained with 0.1% Coomassie brilliant blue (w/v), 8% methanol (v/v) and 7% acetic acid (v/v) overnight with agitation. Destaining was carried out with 40% methanol, 10% acetic acid and 50% water (v/v). The extent of degradation was quantified by Image Lab using the relative quantity tool.

[2] = system: C. albicans ATCC 18804; conditions: ATCC 18804, 48 h
Method: (§1) For the antifungal tests, the strains C. albicans ATCC 90028, C. albicans ATCC 18804 and C. albicans ATCC 10231 were donated by the National Institute of Quality Control in Health (INCQS—Fundação Oswaldo Cruz—Fiocruz, Rio de Janeiro, Brazil). To prepare C. albicans for the tests, the lyophilized microorganism was initially reactivated in Sabouraud Dextrose Broth (Kasvi, Pinhais, Brazil) and incubated at 37 °C for 24 h. Then, the yeasts were seeded in Sabouraud Dextrose Agar and incubated for 48 h at 37 °C. Finally, the stock culture obtained was stored in a refrigerator at 4 °C for 3 months.
(§2) To prepare the standardized suspensions, some colonies of C. albicans stock cultures were seeded in Sabouraud Dextrose Broth and incubated for 24 h at 37 °C. After this time, a small aliquot of the inoculum was transferred to sterile Sabouraud Dextrose Broth to obtain a suspension with optical density (OD) between 0.10 and 0.15 (530 nm), with approximate concentration of 1 × 10^6 CFU mL^−1 [34, 35]. Finally, the suspension was diluted to obtain a concentration of 1 × 10^3 CFU mL^−1, which was used in the tests described below.
(§3) The antifungal activity tests were performed using broth microdilution. The broth microdilution was performed as described in the M27-A3 document of Clinical and Laboratory Standards Institute (CLSI) with modifications. The medium used was Sabouraud Dextrose Broth (SDB). The synthetic peptides were dissolved in a Tris·HCl 10 mM pH 7.2 buffer and added to the plate containing SDB for a final concentration in the first well of 160 µmol L^−1. The cell suspension was prepared as described under “Microorganisms and growth conditions”. This suspension was inoculated on a microdilution plate previously prepared with the peptides diluted in a concentration range from 160 to 0.31 µmol L^−1. The control drug used was fluconazole (FLU), diluted in deionized water. The plates were incubated at 37 °C for 48 h and at the end of the incubation time, the OD in each well was read in a spectrophotometer at 595 nm. The test was performed in triplicate for each of the strains.

[3] = system: C. albicans ATCC 90028; conditions: ATCC 90028, 48 h, 20 µmol L^-1
Method: as §1, §2, §3

[4] = cationic-PAGE; for Time at which the band was no longer observed in the gel (total/complete degradation) / Band of the peptide in the gel at 8 h (in words): 50 µg mL^-1 peptide in 10-fold diluted human WSS; for Peptide remaining (band quantification): 0 h, 50 µg mL^-1 peptide in 10-fold diluted pooled human WSS, Coomassie, Image Lab relative quantity, mean ± SD, duplicate samples
Method: as §4, §5, §6

[5] = system: C. albicans; conditions: some species of C. albicans; cited from earlier work
Source text: High levels of Hst5 were found in the saliva of patients with periodontal and oral fungal infections.

[6] = for HPLC peak of intact peptide after 8 h (in words): 50 µg mL^-1 peptide in 10-fold diluted human WSS, RP-HPLC C18, UV 280 nm; for Time after which the peptide was still found in the samples in whole saliva: abstract, cationic-PAGE and HPLC assays
Method: as §4
To assess and compare proteolysis degradation in the WS environment, all the peptides were added to WSS to observe their degradation over time by cationic-PAGE and HPLC. […] After 0, 0.5, 1.5, 4, 6, 8, 24 and 48 h of incubation, two aliquots of 100 µL were removed (one for the cationic-PAGE analysis another for HPLC analysis). After that, the aliquots were boiled for 5 min to terminate proteolytic activity. Subsequently the aliquots were diluted in a buffer containing 80% acetonitrile/19.9% H2O/0.1% trifluoroacetic acid, dried using a Vacufuge concentrator (Eppendorf, Westbury, NY, USA) and desalted using ZipTip® Pipette Tips (Merk, Rahway, NJ, USA) to concentrate and purify the samples [29].
The aliquots collected for the HPLC analysis were also dried, desalted and resuspended in 30 μL of 10 mM Tris·HCl pH 7.2 buffer solution. Then, 30 µL was analyzed by HPLC in analytical mode using a Waters Symmetry® C18 5 µm, 4.6 × 250 mm reverse phase column (Part No. WAT054275) (Waters, Milford, MA, USA). The solvents used were all chromatographic grade (purchase from Sigma-Aldrich®, St. Louis, MO, USA) and the water used was ultrapure. The chromatographic conditions were solvents A (0.045% TFA/H2O) and B (0.036% TFA/ACN), in a gradient of 5% to 95% B in 30 min, with a flow of 0.53 mL min^−1 at a detector wavelength of 280 nm, using a Waters Alliance 2695 HPLC connected to a Waters 2996 photodiode array detector (Waters, Milford, MA, USA).

[7] = system: C. albicans ATCC 10231 (fluconazole-resistant); conditions: fluconazole-resistant strain, Sabouraud Dextrose Broth, 37 °C, 48 h, OD 595 nm, triplicate
Method: as §1, §2, §3

| Compound | remaining at 0.5 h, 50 µg mL^-1 [1] [%] | Inhibition of C. albicans ATCC 18804 ([2]; 20 µmol L^-1) | Inhibition of C. albicans ATCC 90028 [3] [%] | Time at which the band was no longer observed in the gel (total/complete degradation) [4] [h] | Minimum inhibitory concentration (MIC) [5] [µg/mL] | HPLC peak of intact peptide after 8 h (in words) [6] | remaining at 4 h, 50 µg mL^-1 [1] [%] | Peptide remaining (band quantification) [4] [%] | Time after which the peptide was still found in the samples in whole saliva [6] [h] | remaining at 6 h, 50 µg mL^-1 [1] [%] | remaining at 8 h, 50 µg mL^-1 [1] [%] | remaining at 24 h, 50 µg mL^-1 [1] [%] | remaining at 48 h, 50 µg mL^-1 [1] [%] | Inhibition of C. albicans ATCC 18804 ([2]; 80 µmol L^-1) | Inhibition of C. albicans ATCC 18804 ([2]; 160 µmol L^-1) | Band of the peptide in the gel at 8 h (in words) [4] | Inhibition of C. albicans ATCC 10231 ([7]; peptide 160 µmol L^-1) [%] | Inhibition of C. albicans ATCC 18804 ([2]; 40 µmol L^-1) | Inhibition of growth of C. albicans ATCC 10231 ([7]; peptide 40 µmol L^-1) [%] |
| --- | --- | --- | --- | --- | --- | --- | --- | --- | --- | --- | --- | --- | --- | --- | --- | --- | --- | --- | --- |
| C[C@H](NC(=O)[C@H](Cc1c[nH]cn1)NC(=O)[C@H](CO)NC(=O)[C@H](CC(=O)O)NC(=O)[C@@H](N)Cc1c[nH]c2ccccc12)C(=O)N[C@@H](CCCCN)C(=O)N[C@@H](CCCNC(=N)N)C(=O)N[C@@H](Cc1c[nH]cn1)C(=O)N[C@@H](Cc1c[nH]cn1)C(=O)NCC(=O)N[C@@H](Cc1ccc(O)cc1)C(=O)N[C@@H](CCCCN)C(=O)N[C@@H](CCCNC(=N)N)C(=O)N[C@@H](CCCCN)C(=O)N[C@@H](Cc1ccccc1)C(=O)N[C@@H](Cc1c[nH]cn1)C(=O)N[C@@H](CCC(=O)O)C(=O)N[C@@H](CCCCN)C(=O)N[C@@H](Cc1c[nH]cn1)C(=O)N[C@@H](Cc1c[nH]cn1)C(=O)N[C@@H](CO)C(=O)N[C@@H](Cc1c[nH]cn1)C(=O)N[C@@H](CCCNC(=N)N)C(=O)NCC(=O)N[C@@H](Cc1ccc(O)cc1)C(=O)O [Peptide 0WHst5] | 91 ± 17 | greater than 80% | 75 | ≤ 4 |  |  |  |  |  |  |  |  |  |  |  |  |  |  |  |
| Histatin 5 [Hst5] |  |  |  |  | 8 to 16 |  |  |  |  |  |  |  |  |  |  |  |  |  |  |
| WAKRHHGYKRKFH [WP113] | 89.5 ± 7.3 |  | 76 | > 4 |  | disappeared | 7.23 ± 8.17 | 100.0 ± 0.0 |  |  |  |  |  |  |  |  |  |  |  |
| WKRHHGY [Peptide 6WH5] | 98.8 ± 1.1 |  |  |  |  | still detectable | 79.3 ± 9.8 | 100.0 ± 0.0 | ≥ 8 | 52.4 ± 7 | 30.6 ± 4 | 16.5 ± 5.9 | 8.3 ± 6.2 | above 70% | greater than 80% | possible to visualize the band |  |  |  |
| WKRHHGYK [Peptide 7WH5] | 100 ± 4.5 |  |  |  |  | still detectable | 86.2 ± 3.1 | 100.0 ± 0.0 | ≥ 8 | 55.9 ± 5.8 | 49.6 ± 2.4 | 19.1 ± 7.5 | 6.9 ± 1 | greater than 80% |  | possible to visualize the band | 90.9 |  |  |
| WKRHHGYKR [Peptide 8WH5] | 99.9 ± 8 |  |  |  |  | still detectable | 80.3 ± 13 | 100.0 ± 0.0 | ≥ 8 | 62 ± 8.4 | 44.2 ± 0.9 | 8.6 ± 4.4 | 3.5 ± 0.8 |  |  | possible to visualize the band |  | greater than 80% | 85 |
